Laboratory results reported in patent US9604932B2 (priority 2013, dated 2017).

Key:
[1] = Plasma pharmacokinetics in sheep (release of R-100 from R-107), LCMS; assay type: in vivo; conditions: IV R-100 20 mg/kg bolus
Method: In the following two experiments, the pharmacokinetic of releasing R-100 from R-107, via R-105 that is the reduced form of R-100, was studied in vivo according to the protocol described herein.
100 μl aliquots plasma obtained from R-107-treated sheep or pig were thawed and 200 μl ice-cold ethanol was added to each 100 μl sample to precipitate protein. Samples were then vortexed, placed on ice for 10 minutes, and then spun down at room temperature for 15 minutes. A first 100 μl supernatant from each spun sample was withdrawn and placed in a labeled HPLC micro vial to which 300 μl MPA (LC mobile phase A) was added, and the vial contents were then mixed and submitted for LCMS analysis (kept at 4° C.). The concentration of R-107 was measured in this sample as was the concentration of R105. A second 100 μl supernatant from each spun sample was added to a labelled HPLC micro vial to which 300 μl MPA and 2 μl of Reducing solution (ascorbic acid, 1.0 mg/ml in water) were added. These vials were vortexed; incubated at 50° C. for 1 hour with gentle shaking; and were then cooled to 4° C. and submitted for LCMS analysis. This sample was analyzed for R105, i.e., reduced form of R-100, and the amount measured thus represents the sum of R-100 and R-105 originally present in the plasma. The concentration of R-100 can be calculated from that of the R-105 in the second sample minus that of R-105 in the first sample. However, the concentrations of R-105 were seen to be low (approximately 10% or less of those of R-100) and so the results reported below as R-100 are not corrected for R-105.
Sets of standards (R-100, R-105 and R-107) were prepared by spiking individually in pig plasma. 100 μl aliquots of these spiked plasma samples, after thawing, were included in the above extraction protocol.
Analysis method were carried out with an Agilent HPLC stack, with column eluate directed, via a diverter valve, into the source of an AB Sciex ‘Qstar Elite’ Hybrid TOF, high-resolution mass spectrometer. LC column: Phenomenex Kinetex C18 2.6u 100A, 2.1×50 mm. LC mobile phase A: H2O with 0.02% trifluoroacetic acid (TFA), 0.1% formic acid (HOF); Phase B: acetonitrile (ACN) with 0.02% TFA, 0.1% HOF. Mobile phase flow rate=500 μl/min. Injection size: 8 μl, via Agilent 1100 u-WPS autosampler. […]

[2] = cited from earlier work

## CC1(C)CC(CO[N+](=O)[O-])C(C)(C)N1[O] (centres unmarked) [R-100, 3-nitratomethyl-2,2,5,5-tetramethylpyrrolidinyloxy, reference compound]
[1]; 0 hrs post dose
  R-100 in plasma: 0 µg/mL
[1]; 0.08 hrs post dose
  R-100 in plasma: 6.72 µg/mL
[1]; 0.17 hrs post dose
  R-100 in plasma: 6.11 µg/mL
[1]; 0.25 hrs post dose
  R-100 in plasma: 5.31 µg/mL
[1]; 0.5 hrs post dose
  R-100 in plasma: 2.72 µg/mL
[1]; 1 hrs post dose
  R-100 in plasma: 1.63 µg/mL
[1]; 2 hrs post dose
  R-100 in plasma: 0.7 µg/mL
[1]; 4 hrs post dose
  R-100 in plasma: 0.28 µg/mL
[1]; 8 hrs post dose
  R-100 in plasma: 0.03 µg/mL
[2]
  Solubility in organic solvents: soluble in certain organic solvents such as dimethyl sulfoxide (DMSO)
  Solubility in water: highly insoluble in water
